# Active and inactive are the calls of the source. The calls are words filed in the database; no cut-off is given here.
# Biological target: Alpha-glucosidase MAL12 (Saccharomyces cerevisiae S288c, UniProt P53341)
# Test: Inhibition of bakers yeast alpha-glucosidase using p-nitrophenyl-alpha-D-glucopyranoside as substrate after 30 mins by spectrophotometry
# Sequence of Alpha-glucosidase MAL12 (P53341 whole entry): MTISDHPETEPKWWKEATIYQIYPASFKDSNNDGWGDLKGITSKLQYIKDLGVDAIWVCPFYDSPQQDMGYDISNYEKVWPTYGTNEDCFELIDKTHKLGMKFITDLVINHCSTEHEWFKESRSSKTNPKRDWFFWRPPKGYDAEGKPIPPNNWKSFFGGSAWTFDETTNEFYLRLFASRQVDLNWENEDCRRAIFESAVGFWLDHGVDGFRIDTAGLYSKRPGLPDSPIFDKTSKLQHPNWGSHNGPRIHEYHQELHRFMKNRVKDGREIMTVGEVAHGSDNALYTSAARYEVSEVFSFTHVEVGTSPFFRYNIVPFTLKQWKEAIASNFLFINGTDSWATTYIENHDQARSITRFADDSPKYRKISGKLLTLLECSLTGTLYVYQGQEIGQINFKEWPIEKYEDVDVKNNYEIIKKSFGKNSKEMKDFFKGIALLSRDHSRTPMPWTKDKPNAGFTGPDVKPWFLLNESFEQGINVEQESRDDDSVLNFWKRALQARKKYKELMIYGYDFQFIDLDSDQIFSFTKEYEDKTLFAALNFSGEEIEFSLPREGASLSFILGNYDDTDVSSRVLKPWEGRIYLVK
row,SMILES,IC50
1,COC(=O)CC1Nc2ccccc2-c2ccc3c(c21)C(=O)C(=O)N3C (configuration not stated),287 µM
2,CN1C(=O)C(=O)c2c1ccc1c2C(CC(=O)O)Oc2ccccc2-1 (configuration not stated),29 µM
3,COC(=O)CC1c2c(ccc3c2C(=O)C(=O)N3C)-c2ccccc2N1S(=O)(=O)c1ccccc1 (configuration not stated),77.1 µM
4,CN1C(=O)C(=O)c2c1ccc1c2C(CC(=O)O)Nc2ccccc2-1 (configuration not stated),187 µM
5,COC(=O)CC1Nc2ccccc2-c2ccc3c(c21)C(=O)C(=O)N3Cc1ccc(OC)cc1 (configuration not stated),45.3 µM
6,COC(=O)CC1c2c(ccc3c2C(=O)C(=O)N3C)-c2ccccc2N1C(=O)c1ccccc1 (configuration not stated),150 µM
7,O=C(O)CC1Oc2ccccc2-c2ccc3c(c21)C(=O)C(=O)N3Cc1ccc(C(F)(F)F)cc1 (configuration not stated),4.8 µM
8,COC(=O)CC1Oc2ccccc2-c2ccc3c(c21)C(=O)C(=O)N3Cc1ccccc1 (configuration not stated),12.1 µM
9,COC(=O)CC1c2c(ccc3c2C(=O)C(=O)N3C)-c2ccccc2N1C(=O)c1ccc(OC)cc1 (configuration not stated),111 µM
10,COC(=O)CC1Oc2ccccc2-c2ccc3c(c21)C(=O)C(=O)N3Cc1ccc(OC)cc1 (configuration not stated),32.3 µM
11,COC(=O)CC1Nc2ccccc2-c2cc(C)c3c(c21)C(=O)C(=O)N3C (configuration not stated),117 µM
12,COC(=O)CC1c2c(ccc3c2C(=O)C(=O)N3C)-c2ccccc2N1C(C)=O (configuration not stated),> 300 µM
13,COC(=O)CC1Oc2ccccc2-c2cc(C)c3c(c21)C(=O)C(=O)N3C (configuration not stated),34.8 µM
14,COC(=O)CC1c2c(ccc3c2C(=O)C(=O)N3C)-c2ccccc2N1S(=O)(=O)c1ccc(F)cc1 (configuration not stated),42.9 µM
15,COC(=O)CC1Oc2ccccc2-c2ccc3c(c21)C(=O)C(=O)N3C (configuration not stated),105 µM
16,COC(=O)CC1Nc2ccccc2-c2ccc3c(c21)C1(OCC(C)(C)CO1)C(=O)N3C (configuration not stated),> 300 µM
17,COC(=O)CC1Oc2ccccc2-c2ccc3c(c21)C(=O)C(=O)N3Cc1ccc(C(F)(F)F)cc1 (configuration not stated),15.7 µM
18,COC(=O)CC1c2c(ccc3c2C(=O)C(=O)N3C)-c2ccccc2N1C(=O)c1ccc(Cl)cc1 (configuration not stated),75.9 µM
19,O=C(O)CC1Oc2ccccc2-c2ccc3c(c21)C(=O)C(=O)N3Cc1ccccc1 (configuration not stated),16 µM
20,COC(=O)CC1Oc2ccccc2-c2cc(C)c3c(c21)C(=O)C(=O)N3Cc1ccccc1 (configuration not stated),39.3 µM

# Biological target: Oligo-1,6-glucosidase IMA1 (Saccharomyces cerevisiae S288c) (UniProt P53051)
# Test: Competitive inhibition of bakers yeast alpha-glucosidase using p-nitrophenyl-alpha-D-glucopyranoside as substrate at 0.5 to 5 uM after 30 mins by Lineweaver-Burk plot analysis
# Sequence of Oligo-1,6-glucosidase IMA1 (Saccharomyces cerevisiae S288c) (P53051 whole entry): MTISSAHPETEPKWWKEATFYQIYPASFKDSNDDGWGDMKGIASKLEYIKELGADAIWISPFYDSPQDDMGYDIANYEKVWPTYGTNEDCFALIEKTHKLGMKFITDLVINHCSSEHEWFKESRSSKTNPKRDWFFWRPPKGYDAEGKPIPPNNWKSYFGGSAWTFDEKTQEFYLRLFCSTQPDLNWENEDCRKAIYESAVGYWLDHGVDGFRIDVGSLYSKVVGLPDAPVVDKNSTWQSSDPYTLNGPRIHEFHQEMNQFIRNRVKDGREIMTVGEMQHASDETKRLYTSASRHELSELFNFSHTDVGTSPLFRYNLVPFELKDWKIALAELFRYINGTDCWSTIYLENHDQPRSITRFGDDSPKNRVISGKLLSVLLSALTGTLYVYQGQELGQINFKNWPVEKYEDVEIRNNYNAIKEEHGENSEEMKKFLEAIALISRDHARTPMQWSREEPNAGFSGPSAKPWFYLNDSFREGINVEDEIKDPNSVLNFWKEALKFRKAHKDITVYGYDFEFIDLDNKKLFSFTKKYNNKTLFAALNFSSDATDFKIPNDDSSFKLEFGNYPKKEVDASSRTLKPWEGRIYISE
row,SMILES,inhibition
1,O=C(O)CC1Oc2ccccc2-c2ccc3c(c21)C(=O)C(=O)N3Cc1ccc(C(F)(F)F)cc1 (configuration not stated),Active

# Biological target: Oligo-1,6-glucosidase IMA1 (Saccharomyces cerevisiae S288c) (UniProt P53051)
# Test: Ratio of acarbose IC50 to compound IC50 for bakers yeast alpha-glucosidase using p-nitrophenyl-alpha-D-glucopyranoside as substrate after 30 mins by spectrophotometry
row,SMILES,Ratio IC50
1,O=C(O)CC1Oc2ccccc2-c2ccc3c(c21)C(=O)C(=O)N3Cc1ccc(C(F)(F)F)cc1 (configuration not stated),20

# Source: ChEMBL document CHEMBL3396977, “Design, synthesis and docking study of novel tetracyclic oxindole derivatives as α-glucosidase inhibitors” (Bioorg Med Chem Lett, 2015)
